Assay results from patent US20210137117A1, “HERBICIDAL MIXTURES” (Bayer Aktiengesellschaft, priority 2017, published 2021).
Values joined by “and” are separate entries in the source; they are usually repeats but may differ in a detail not shown here. Equal entries are not always repeated.

Key:
Experiment in all cases: Pre-emergence action against weeds (greenhouse)
Format in all cases: in vivo
[1] = test system: ALOMY—sensitive (Alopecurus myosuroides)
Text: (§1) Depending on the trial conditions, the soil of the standard field soil is sterile or not sterile.
(§2) The amount of water used for spray application was 300l/ha.
ALOMY—sensitive (Alopecurus myosuroides) sensitive to customary herbicidally active compounds.
(§3) Insofar as herbicidal effects of the compositions according to the invention compared to mixtures of the prior art or compared to components applied individually against economically important mono- and dicotyledonous harmful plants were the centre of attention, the synergistic herbicidal activities were calculated using Colby's formula (cf. S. R. Colby; Weeds 15 (1967), 20-22): […]

[2] = test system: ALOMY—resistant (Alopecurus myosuroides)
Text: as §1, §2
ALOMY—resistant (Alopecurus myosuroides) resistant to herbicidally active compounds of the HRAC groups A and B; population mixture of field origin having increased metabolic resistance (IMR) and some target site resistance (TSR).
as §3

[3] = test system: LOLRI—sensitive (Lolium rigidum)
Text: as §1, §2
LOLRI—sensitive (Lolium rigidum) sensitive to customary herbicidally active compounds.
as §3

[4] = test system: LOLRI—resistant (Lolium rigidum)
Text: as §1, §2
LOLRI—resistant (Lolium rigidum) resistant to herbicidally active compounds of the HRAC groups A and B; population mixture of field origin having increased metabolic resistance (IMR) and some target site resistance (TSR).
as §3

AVEFA (Avenafatua) = test system: AVEFA (Avenafatua)
Text: as §1, §2
AVEFA (Avenafatua)—Wild oat
as §3

BROST (Bromus sterilis) = test system: BROST (Bromus sterilis)
Text: as §1, §2
BROST (Bromus sterilis)—Bromegrass, barren
as §3

PAPRH (Papaver rhoeas) = test system: PAPRH (Papaver rhoeas)
Text: as §1, §2
PAPRH (Papaver rhoeas)—Poppy, common
as §3

[5] = test system: SORHA (Sorghum halepense)
Text: as §1, §2
SORHA (Sorghum halepense)—Johnsongrass
as §3

CENCY (Centaurea cyanus) = test system: CENCY (Centaurea cyanus)
Text: as §1, §2
CENCY (Centaurea cyanus)—Cornflower
as §3

[6] = test system: VERHE (Veronica hederaefolia)
Text: as §1, §2
VERHE (Veronica hederaefolia)—Speedwell, iveleaf
as §3

EMEAU (Emex australis) = test system: EMEAU (Emex australis)
Text: as §1, §2
EMEAU (Emex australis)—Cathead
as §3

[7] = test system: RAPRA (Raphanus raphanistrum)
Text: as §1, §2
RAPRA (Raphanus raphanistrum)—Charlock, jointed
as §3

BRSNW (Brassica napus) = test system: BRSNW (Brassica napus)
Text: as §1, §2
BRSNW (Brassica napus)—Rape, winter
as §3

[8] = test system: TRZAS (Triticum aestivum)
Text: as §1, §2
TRZAS (Triticum aestivum)—Wheat, spring
as §3

HORVS (Hordeum vulgare) = test system: HORVS (Hordeum vulgare)
Text: as §1, §2
HORVS (Hordeum vulgare)—Barley, spring
as §3

## Cc1ccccc1CO[C@@H]1C[C@@]2(C(C)C)CC[C@]1(C)O2 (racemic) [Cinmethylin, (+/−)-2-exo-(2-methylbenzyloxy)-1-methyl-4-isopropyl-7-oxabicyclo[2.2.1]heptane]
[1]; 10 g AS/ha
  herbicidal action: 0%
[1]; 25 g AS/ha
  herbicidal action: 80%
[1]; 50 g AS/ha
  herbicidal action: 80%
[1]; 100 g AS/ha
  herbicidal action: 90%
[1]; 250 g AS/ha
  herbicidal action: 100%
[1]; 500 g AS/ha
  herbicidal action: 100%
[1]; pre-emergence, dose 50 g AS/ha
  Herbicidal action ALOMY sensitive: 80
[2]; 10 g AS/ha
  herbicidal action: 0%
[2]; 25 g AS/ha
  herbicidal action: 60%
[2]; 50 g AS/ha
  herbicidal action: 70%
[2]; 100 g AS/ha
  herbicidal action: 70%
[2]; 250 g AS/ha
  herbicidal action: 90%
[2]; 500 g AS/ha
  herbicidal action: 100%
[2]; pre-emergence, dose 50 g AS/ha
  Herbicidal action ALOMY resistant: 70
[3]; 10 g AS/ha
  herbicidal action: 0%
[3]; 25 g AS/ha
  herbicidal action: 70%
[3]; 50 g AS/ha
  herbicidal action: 90%
[3]; 100 g AS/ha
  herbicidal action: 100%
[3]; 250 g AS/ha
  herbicidal action: 100%
[3]; 500 g AS/ha
  herbicidal action: 100%
[3]; pre-emergence, dose 50 g AS/ha
  Herbicidal action LOLRI sensitive: 90
[4]; 10 g AS/ha
  herbicidal action: 0%
[4]; 25 g AS/ha
  herbicidal action: 70%
[4]; 50 g AS/ha
  herbicidal action: 85% and 100%
[4]; 100 g AS/ha
  herbicidal action: 100%
[4]; 250 g AS/ha
  herbicidal action: 100%
[4]; 500 g AS/ha
  herbicidal action: 100%
[4]; pre-emergence, dose 50 g AS/ha
  Herbicidal action LOLRI resistant: 100
AVEFA (Avenafatua); 10 g AS/ha
  herbicidal action: 0%
AVEFA (Avenafatua); 25 g AS/ha
  herbicidal action: 0%
AVEFA (Avenafatua); 50 g AS/ha
  herbicidal action: 0%
AVEFA (Avenafatua); 100 g AS/ha
  herbicidal action: 25%
AVEFA (Avenafatua); 250 g AS/ha
  herbicidal action: 50%
AVEFA (Avenafatua); 500 g AS/ha
  herbicidal action: 70%
AVEFA (Avenafatua); pre-emergence, dose 50 g AS/ha
  Herbicidal action AVEFA: 0
BROST (Bromus sterilis); 10 g AS/ha
  herbicidal action: 0%
BROST (Bromus sterilis); 25 g AS/ha
  herbicidal action: 20%
BROST (Bromus sterilis); 50 g AS/ha
  herbicidal action: 50%
BROST (Bromus sterilis); 100 g AS/ha
  herbicidal action: 100%
BROST (Bromus sterilis); 250 g AS/ha
  herbicidal action: 100%
BROST (Bromus sterilis); 500 g AS/ha
  herbicidal action: 100%
BROST (Bromus sterilis); pre-emergence, dose 50 g AS/ha
  Herbicidal action BROST: 50
PAPRH (Papaver rhoeas); 10 g AS/ha
  herbicidal action: 0%
PAPRH (Papaver rhoeas); 25 g AS/ha
  herbicidal action: 0%
PAPRH (Papaver rhoeas); 50 g AS/ha
  herbicidal action: 0%
[5]; 50 g AS/ha
  herbicidal action: 65%
[5]; 100 g AS/ha
  herbicidal action: 70%
[5]; 250 g AS/ha
  herbicidal action: 80%
[5]; 500 g AS/ha
  herbicidal action: 100%
[5]; pre-emergence, dose 50 g AS/ha
  Herbicidal action SORHA: 65
CENCY (Centaurea cyanus); 50 g AS/ha
  herbicidal action: 0%
CENCY (Centaurea cyanus); 100 g AS/ha
  herbicidal action: 0%
CENCY (Centaurea cyanus); 250 g AS/ha
  herbicidal action: 30%
CENCY (Centaurea cyanus); 500 g AS/ha
  herbicidal action: 80%
CENCY (Centaurea cyanus); pre-emergence, dose 50 g AS/ha
  Herbicidal action CENCY: 0
[6]; 10 g AS/ha
  herbicidal action: 0%
[6]; 25 g AS/ha
  herbicidal action: 0%
[6]; 50 g AS/ha
  herbicidal action: 0%
[6]; 100 g AS/ha
  herbicidal action: 0%
[6]; 250 g AS/ha
  herbicidal action: 0%
[6]; 500 g AS/ha
  herbicidal action: 0%
[6]; pre-emergence, dose 50 g AS/ha
  Herbicidal action VERHE: 0
EMEAU (Emex australis); 10 g AS/ha
  herbicidal action: 0%
EMEAU (Emex australis); 25 g AS/ha
  herbicidal action: 0%
EMEAU (Emex australis); 50 g AS/ha
  herbicidal action: 0%
EMEAU (Emex australis); 100 g AS/ha
  herbicidal action: 0%
EMEAU (Emex australis); 250 g AS/ha
  herbicidal action: 0%
EMEAU (Emex australis); 500 g AS/ha
  herbicidal action: 0%
EMEAU (Emex australis); pre-emergence, dose 50 g AS/ha
  Herbicidal action EMEAU: 0
[7]; 10 g AS/ha
  herbicidal action: 0%
[7]; 25 g AS/ha
  herbicidal action: 0%
[7]; 50 g AS/ha
  herbicidal action: 0%
[7]; 100 g AS/ha
  herbicidal action: 0%
[7]; 250 g AS/ha
  herbicidal action: 30%
[7]; 500 g AS/ha
  herbicidal action: 40%
[7]; pre-emergence, dose 50 g AS/ha
  Herbicidal action RAPRA: 0
BRSNW (Brassica napus); 10 g AS/ha
  herbicidal action: 0%
BRSNW (Brassica napus); 25 g AS/ha
  herbicidal action: 0%
BRSNW (Brassica napus); 50 g AS/ha
  herbicidal action: 0%
BRSNW (Brassica napus); 100 g AS/ha
  herbicidal action: 0%
BRSNW (Brassica napus); 250 g AS/ha
  herbicidal action: 0%
BRSNW (Brassica napus); 500 g AS/ha
  herbicidal action: 10%
BRSNW (Brassica napus); pre-emergence, dose 50 g AS/ha
  Herbicidal action BRSNW: 0
[8]; 10 g AS/ha
  herbicidal action: 0%
[8]; 25 g AS/ha
  herbicidal action: 0%
[8]; 50 g AS/ha
  herbicidal action: 30%
[8]; 100 g AS/ha
  herbicidal action: 40%
[8]; 250 g AS/ha
  herbicidal action: 75%
[8]; 500 g AS/ha
  herbicidal action: 90%
[8]; pre-emergence, dose 50 g AS/ha
  Herbicidal action (crop damage) TRZAS: 30
HORVS (Hordeum vulgare); 10 g AS/ha
  herbicidal action: 0%
HORVS (Hordeum vulgare); 25 g AS/ha
  herbicidal action: 0%
HORVS (Hordeum vulgare); 50 g AS/ha
  herbicidal action: 30%
HORVS (Hordeum vulgare); 100 g AS/ha
  herbicidal action: 40%
HORVS (Hordeum vulgare); 250 g AS/ha
  herbicidal action: 65%
HORVS (Hordeum vulgare); 500 g AS/ha
  herbicidal action: 70%
HORVS (Hordeum vulgare); pre-emergence, dose 50 g AS/ha
  Herbicidal action (crop damage) HORVS: 30
